Measurements from patent publication US20260191968A1, “PROTAC DEGRADERS OF MLLT1 AND/OR MLLT3” (DARK BLUE THERAPEUTICS LTD, priority 2024, published 2026).

Key:
MV4-11 cells = experiment: MV4-11 cellular proliferative assay, Assay Format B (CTG 2.0, 168 h); format: cell-based; conditions: Homo sapiens, 168 h (7 days), CTG 2.0, read-out: IC50 (MV4-11 cellular proliferative assay, Assay format B)
Outline: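 MV4-11 cells seeded overnight in IMDM + 10% FBS, then exposed to 10-point, 3-fold dilutions from 1 uM or 100 nM top concentration (0.3% DMSO final) for 168 h at 37 °C. CTG 2.0 luminescence read; % viability vs DMSO control fitted by four-parameter logistic regression.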

MLLT1 = biological target: T1, MLLT1 (Homo sapiens, UniProt Q03111); experiment: MLLT1 degradation assay in MV4-11 cells (JESS chemiluminescent detection), three concentrations, 24 h; format: cell-based; conditions: with respect to DMSO control
T1 construct: host or cells: MV4-11
T1 sequence (Q03111 1-559): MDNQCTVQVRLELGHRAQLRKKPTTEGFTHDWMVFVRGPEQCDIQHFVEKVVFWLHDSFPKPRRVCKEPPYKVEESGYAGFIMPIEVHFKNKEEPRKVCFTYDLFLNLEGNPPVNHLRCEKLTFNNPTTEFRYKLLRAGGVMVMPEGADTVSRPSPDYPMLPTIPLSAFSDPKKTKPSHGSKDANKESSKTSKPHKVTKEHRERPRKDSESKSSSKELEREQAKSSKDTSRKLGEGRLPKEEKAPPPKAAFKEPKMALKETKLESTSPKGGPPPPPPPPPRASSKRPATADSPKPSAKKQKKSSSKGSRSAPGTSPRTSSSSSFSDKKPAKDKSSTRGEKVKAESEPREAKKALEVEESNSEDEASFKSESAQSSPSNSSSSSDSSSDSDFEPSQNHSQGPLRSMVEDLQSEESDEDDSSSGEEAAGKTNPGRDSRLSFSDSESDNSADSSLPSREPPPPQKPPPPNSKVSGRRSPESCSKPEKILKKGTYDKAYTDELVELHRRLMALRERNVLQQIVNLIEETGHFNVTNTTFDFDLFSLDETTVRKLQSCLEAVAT
Outline: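 MV4-11 cells treated 24 h at 37° C, 5% CO2 with 1000, 100 and 10 nM compound (0.1% DMSO final). MLLT1 quantified by automated capillary chemiluminescent immunodetection; band peak area expressed as % degradation relative to DMSO control.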

Row | Structure (SMILES) | IC50 (MV4-11 cells) | MLLT1% Degradation @ 0.01 μM (MLLT1) | MLLT1% Degradation @ 0.1 μM (MLLT1) | MLLT1% Degradation @ 1 μM (MLLT1)
1 | CN1CCC[C@@H]1c1cc2cnc(NC(=O)c3ccc(OCCN4CCN(c5cccc6c5CN(C5CCC(=O)NC5=O)C6=O)CC4)cc3)cc2[nH]1 (stereo partly drawn) [Example 142, 4-(2-(4-(2-(2,6-dioxopiperidin-3-yl)-1-oxoisoindolin-4-yl)piperazin-1-yl)ethoxy)-N-(2-((R)-1-methylpyrrolidin-2-yl)-1H-pyrrolo[3,2-c]pyridin-6-yl)benzamide] | ≤ 100 nM | A (Category A: A ≥ 75% degradation) | A (Category A: A ≥ 75% degradation) | A (Category A: A ≥ 75% degradation)
2 | CN1CCC[C@@H]1c1cc2cnc(NC(=O)c3ccc(OC4CCN(CC5CCN(c6ccc7c(c6)CN(C6CCC(=O)NC6=O)C7=O)CC5)CC4)cc3)cc2[nH]1 (stereo partly drawn) [Example 143, 4-((1-((1-(2-(2,6-dioxopiperidin-3-yl)-1-oxoisoindolin-5-yl)piperidin-4-yl)methyl)piperidin-4-yl)oxy)-N-(2-((R)-1-methylpyrrolidin-2-yl)-1H-pyrrolo[3,2-c]pyridin-6-yl)benzamide] | ≤ 100 nM | A (Category A: A ≥ 75% degradation) | A (Category A: A ≥ 75% degradation) | A (Category A: A ≥ 75% degradation)
3 | CN1CCC[C@@H]1c1cc2cnc(NC(=O)c3ccc(OC4CCN(CC5CCN(c6cccc7c6C(=O)N(C6CCC(=O)NC6=O)C7=O)CC5)CC4)cc3)cc2[nH]1 (stereo partly drawn) [Example 144, 4-((1-((1-(2-(2,6-dioxopiperidin-3-yl)-1,3-dioxoisoindolin-4-yl)piperidin-4-yl)methyl)piperidin-4-yl)oxy)-N-(2-((R)-1-methylpyrrolidin-2-yl)-1H-pyrrolo[3,2-c]pyridin-6-yl)benzamide] | ≤ 100 nM | B (Category B: 50% ≤ B < 75% degradation) | A (Category A: A ≥ 75% degradation) | A (Category A: A ≥ 75% degradation)
4 | CN1CCC[C@@H]1c1cc2cnc(NC(=O)c3ccc(N4CCC(OC5CCN(c6cccc7c6CN(C6CCC(=O)NC6=O)C7=O)CC5)CC4)nc3)cc2[nH]1 (stereo partly drawn) [Example 145, 6-(4-((1-(2-(2,6-dioxopiperidin-3-yl)-1-oxoisoindolin-4-yl)piperidin-4-yl)oxy)piperidin-1-yl)-N-(2-((R)-1-methylpyrrolidin-2-yl)-1H-pyrrolo[3,2-c]pyridin-6-yl)nicotinamide] | ≤ 100 nM | A (Category A: A ≥ 75% degradation) | A (Category A: A ≥ 75% degradation) | A (Category A: A ≥ 75% degradation)
5 | CN1CCC[C@@H]1c1cc2cnc(NC(=O)c3ccc(N4CCC(OCC5CCN(c6cccc7c6CN(C6CCC(=O)NC6=O)C7=O)CC5)CC4)nc3)cc2[nH]1 (stereo partly drawn) [Example 147, 6-(4-((1-(2-(2,6-dioxopiperidin-3-yl)-1-oxoisoindolin-4-yl)piperidin-4-yl)methoxy)piperidin-1-yl)-N-(2-((R)-1-methylpyrrolidin-2-yl)-1H-pyrrolo[3,2-c]pyridin-6-yl)nicotinamide] | ≤ 100 nM | A (Category A: A ≥ 75% degradation) | A (Category A: A ≥ 75% degradation) | A (Category A: A ≥ 75% degradation)
6 | CN1CCC[C@@H]1c1cc2cnc(NC(=O)c3ccc(N4CCC(OC5CCN(c6cccc7c6C(=O)N(C6CCC(=O)NC6=O)C7=O)CC5)CC4)nc3)cc2[nH]1 (stereo partly drawn) [Example 148, 6-(4-((1-(2-(2,6-dioxopiperidin-3-yl)-1,3-dioxoisoindolin-4-yl)piperidin-4-yl)oxy)piperidin-1-yl)-N-(2-((R)-1-methylpyrrolidin-2-yl)-1H-pyrrolo[3,2-c]pyridin-6-yl)nicotinamide] | ≤ 100 nM | A (Category A: A ≥ 75% degradation) | A (Category A: A ≥ 75% degradation) | A (Category A: A ≥ 75% degradation)
7 | CN1CCC[C@@H]1c1cc2cnc(NC(=O)c3ccc(N4CCN(CCCC#Cc5cccc6c5CN(C5CCC(=O)NC5=O)C6=O)CC4)nc3)cc2[nH]1 (stereo partly drawn) [Example 149, 6-(4-(5-(2-(2,6-dioxopiperidin-3-yl)-1-oxoisoindolin-4-yl)pent-4-yn-1-yl)piperazin-1-yl)-N-(2-((R)-1-methylpyrrolidin-2-yl)-1H-pyrrolo[3,2-c]pyridin-6-yl)nicotinamide] | ≤ 100 nM | A (Category A: A ≥ 75% degradation) | A (Category A: A ≥ 75% degradation) | A (Category A: A ≥ 75% degradation)
8 | CN1CCC[C@@H]1c1cc2cnc(NC(=O)c3ccc(OCCCC#Cc4cccc5c4CN(C4CCC(=O)NC4=O)C5=O)nc3)cc2[nH]1 (stereo partly drawn) [Example 150, 6-((5-(2-(2,6-dioxopiperidin-3-yl)-1-oxoisoindolin-4-yl)pent-4-yn-1-yl)oxy)-N-(2-((R)-1-methylpyrrolidin-2-yl)-1H-pyrrolo[3,2-c]pyridin-6-yl)nicotinamide] | ≤ 100 nM | A (Category A: A ≥ 75% degradation) | A (Category A: A ≥ 75% degradation) | A (Category A: A ≥ 75% degradation)
9 | CN1CCC[C@@H]1c1cc2cnc(NC(=O)c3ccc(N4CCC(CC#Cc5cccc6c5CN(C5CCC(=O)NC5=O)C6=O)CC4)nn3)cc2[nH]1 (stereo partly drawn) [Example 153, 6-(4-(3-(2-(2,6-dioxopiperidin-3-yl)-1-oxoisoindolin-4-yl)prop-2-yn-1-yl)piperidin-1-yl)-N-(2-((R)-1-methylpyrrolidin-2-yl)-1H-pyrrolo[3,2-c]pyridin-6-yl)pyridazine-3-carboxamide] | ≤ 100 nM | A (Category A: A ≥ 75% degradation) | A (Category A: A ≥ 75% degradation) | A (Category A: A ≥ 75% degradation)
10 | CN1CCC[C@@H]1c1cc2cnc(NC(=O)c3cnc(N4CCC(CC#Cc5cccc6c5CN(C5CCC(=O)NC5=O)C6=O)CC4)cn3)cc2[nH]1 (stereo partly drawn) [Example 154, 5-(4-(3-(2-(2,6-dioxopiperidin-3-yl)-1-oxoisoindolin-4-yl)prop-2-yn-1-yl)piperidin-1-yl)-N-(2-((R)-1-methylpyrrolidin-2-yl)-1H-pyrrolo[3,2-c]pyridin-6-yl)pyrazine-2-carboxamide] | ≤ 100 nM | A (Category A: A ≥ 75% degradation) | A (Category A: A ≥ 75% degradation) | A (Category A: A ≥ 75% degradation)
11 | CN1CCC[C@@H]1c1cc2cnc(NC(=O)c3ccc(N4CCN(CC#Cc5cccc6c5CN(C5CCC(=O)NC5=O)C6=O)CC4)cc3F)cc2[nH]1 (stereo partly drawn) [Example 155, 4-(4-(3-(2-(2,6-dioxopiperidin-3-yl)-1-oxoisoindolin-4-yl)prop-2-yn-1-yl)piperazin-1-yl)-2-fluoro-N-(2-((R)-1-methylpyrrolidin-2-yl)-1H-pyrrolo[3,2-c]pyridin-6-yl)benzamide] | ≤ 100 nM | A (Category A: A ≥ 75% degradation) | A (Category A: A ≥ 75% degradation) | B (Category B: 50% ≤ B < 75% degradation)
12 | CN1CCC[C@@H]1c1cc2cnc(NC(=O)c3cc(F)c(CCCCC#Cc4cccc5c4CN(C4CCC(=O)NC4=O)C5=O)c(F)c3)cc2[nH]1 (stereo partly drawn) [Example 156, 4-(6-(2-(2,6-dioxopiperidin-3-yl)-1-oxoisoindolin-4-yl)hex-5-yn-1-yl)-3,5-difluoro-N-(2-((R)-1-methylpyrrolidin-2-yl)-1H-pyrrolo[3,2-c]pyridin-6-yl)benzamide] | ≤ 100 nM | A (Category A: A ≥ 75% degradation) | A (Category A: A ≥ 75% degradation) | A (Category A: A ≥ 75% degradation)
13 | CN1CCC[C@@H]1c1cc2cnc(NC(=O)c3ccc(OC4CN(CC5CCN(c6ccc7c(c6)C(=O)N(C6CCC(=O)NC6=O)C7=O)CC5)C4)cc3)cc2[nH]1 (stereo partly drawn) [Example 157, 4-((1-((1-(2-(2,6-dioxopiperidin-3-yl)-1,3-dioxoisoindolin-5-yl)piperidin-4-yl)methyl)azetidin-3-yl)oxy)-N-(2-((R)-1-methylpyrrolidin-2-yl)-1H-pyrrolo[3,2-c]pyridin-6-yl)benzamide] | ≤ 100 nM | B (Category B: 50% ≤ B < 75% degradation) | A (Category A: A ≥ 75% degradation) | A (Category A: A ≥ 75% degradation)
